Where two headings read alike, the source gives them in different places.
Assays:
[1] = test system: AdvSM symptom burden; experiment: Patient-reported outcomes: AdvSM-SAF total symptom score; format: in vivo, human; settings: C11; P = 0.002, n = 20; baseline 19.1 points (n = 40)
Source text: The AdvSM-SAF comprises a ten-item questionnaire completed by the patient daily, specifically designed to assess symptoms related to AdvSM and measure the impact of treatments on patient symptom improvement. […] The AdvSM-SAF assesses the severity of eight symptoms of AdvSM, including abdominal pain, nausea, vomiting, diarrhea, spots, itching, flushing and fatigue over a 24-h period on a numerical rating scale, and also measures the frequency of vomiting and diarrhea by asking patients to enter a discrete numerical value. Data were analyzed at the item level, domain level and total score level. Domain level analyses are: • Gastrointestinal symptoms score (abdominal pain, nausea, vomiting and diarrhea severity (range 0–40)) • Skin symptom score (spots, itching and flushing severity (range 0–30))
The TSS was achieved by summing all eight severity items (range 0–80).

[2] = test system: KIT D816V variant allele fraction; experiment: KIT D816V variant allele fraction in BM by central ddPCR; format: in vivo, human; settings: for Complete elimination of measurable KIT D816V VAF, patients: post hoc
Method: Other secondary endpoints included PK, DOR and changes in measures of mast cell burden (percentage of BM mast cells, serum tryptase concentration, KIT D816V VAF by ddPCR (detection limit 0.17%), and spleen and liver volumes). PROs were measured by daily completion of AdvSM-SAF (described below) for patients in part 2 as a secondary outcome[37]–[39]. Exploratory endpoints included time to response, PFS and OS.
Responses were assessed according to the protocol schedule. Spleen size was assessed by palpation and by imaging with calculation of volume centrally. KIT D816V VAF in the BM (or in blood if unavailable) was centrally measured using a validated ddPCR assay with a lower limit of detection of 0.17% (Bio-Rad). Other somatic mutations in BM were centrally assayed at baseline by next-generation sequencing.

[3] = Plasma pharmacokinetics, non-compartmental analysis; format: in vivo, human
Method: On D1 and D15 of C1, blood samples for PK analysis were collected before the dose, and 0.5, 1, 2, 4, 8 and 24 h (C1D1 only) after the dose. C2D1 pre-dose concentration was used as the C1D15 24-h concentration for PK analysis. Additional pre-dose samples were collected on D1 of C3 and C4. Avapritinib PK parameters were obtained by non-compartmental analysis of the plasma concentration data versus nominal time using Phoenix WinNonlin© (version 8.0, Certara).
Plasma concentration–time profiles across dose levels and dose versus systemic exposure (Cmax and AUC) relationships were assessed graphically. Systemic exposure parameters of interest included the arithmetic and geometric mean, Cmax and AUC, and 90% CIs.

[4] = test system: patients with AdvSM and other myeloid malignancies; experiment: Safety: adverse events graded by NCI CTCAE v4.03, phase 1 EXPLORER trial; format: in vivo
Source text: The safety population included all enrolled patients and was used to report AEs and PROs (in those who completed the questionnaire). The dose-determining population included all patients in a cohort in part 1 who received ≥21 prescribed avapritinib doses in C1 and completed follow-up through C1, or experienced DLT. The determination of the MTD and RP2D were based on the dose-determining population. […] The AdvSM safety population was also used to report AEs and OS. […] The response-evaluable population was used to report adjudicated response rates and PFS. The PK population comprised all patients with sufficient plasma concentration–time data to reliably estimate the PK parameters of avapritinib.
Safety assessments included determination of ECOG performance status, clinical laboratory testing, vital signs, electrocardiograms, brain imaging (MRI or CT scan) and physical examinations. AEs were graded according to National Cancer Institute Common Terminology Criteria (v4.03)[40]. Treatment-emergent AEs were defined as any AE occurring between the first dose of avapritinib through 30 d after the last dose of avapritinib, any event that was considered related to the study drug regardless of the start date of the event, or any event that was present at baseline but worsened intensity or was subsequently considered related to the study drug by the investigator.

In the case of `Cn1cc(-c2cc3c(N4CCN(c5ncc([C@@](C)(N)c6ccc(F)cc6)cn5)CC4)ncnn3c2)cn1` [avapritinib], the “Mean change from baseline AdvSM-SAF TSS” value [1] is reported as −10.9 points, the “Patients with KIT D816V VAF in BM reduced from baseline by ≥50%” value ([2]; patients with AdvSM, ddPCR) is reported as 80% and the “Patients in whom KIT D816V VAF in BM became undetectable” value ([2]; patients with AdvSM, ddPCR limit of detection 0.17%) is reported as 30%. The “Complete elimination of measurable KIT D816V VAF, patients” value (“Complete elimination” for short) ([2]; best response CR (n = 8)) was 63%, the “Complete elimination” value ([2]; best response CRh (n = 8)) was 50% and the “Complete elimination” value ([2]; best response PR (n = 13)) was 23%. For the same molecule, the “Complete elimination” value ([2]; clinical improvement (n = 2) or stable disease (n = 11)) was 15%, the “Time at which steady state was reached” value ([3]; QD dosing) was no more than 15 days and the half-life ([3]; human, plasma, oral, Cycle 1 Day 15, read-out: Steady state t½) was greater than 20 h. The half-life ([3]; human, plasma, oral, range across doses, read-out: Mean plasma elimination half-life) was 19.8 to 38.3 h, the AUC ([3]; human, plasma, oral, 200 mg QD, C1 D15, CV 54.2%, n = 16, read-out: Steady-state geometric mean AUC0-τ) was 7340 ng·h/mL and the Cmax ([3]; human, plasma, oral, 200 mg QD, C1 D15, CV 62.2%, n = 18, read-out: Steady-state geometric mean maximum plasma concentration (Cmax)) was 433 ng/mL. For the same molecule, the Tmax ([3]; human, plasma, single oral doses of 30 to 400 mg, read-out: Time to maximum plasma concentration (Tmax)) was 2 to 4 h, the “Arthralgia AE, patients” value ([4]; human, in vivo) was 3% and the “Cognitive effects (memory impairment, cognitive disorder, confusional state and encephalopathy), patients” value ([4]; human, in vivo) was 30%. For the same molecule, the “Cognitive effects leading to treatment discontinuation, patients” value ([4]; human, in vivo) was 3%, the “Discontinuation due to related AEs” value ([4]; human, in vivo) was 10% and the “Discontinuation due to unrelated AEs” value ([4]; human, in vivo) was 9%. The “Grade 1 skin hypopigmentation, patients” value ([4]; human, in vivo) was 3%, the “Hair color changes, patients” value ([4]; human, in vivo) was 19% and the “Hypokalemia AE, patients” value ([4]; human, in vivo) was 3%. The “Intracranial bleeding (ICB) in the absence of prior severe thrombocytopenia (platelets <50 × 10^9/l), patients” value ([4]; human, in vivo) was 1%, the “Intracranial bleeding (ICB), patients” value ([4]; human, in vivo) was 13% and the “Intracranial bleeding: cerebral hemorrhage” value ([4]; human, in vivo) was 0 n (%). For the same molecule, the “Median time to first dose reduction” value ([4]; human, in vivo) was 8 weeks, the “Patients with at least one dose reduction due to AEs” value ([4]; human, in vivo) was 72% and the “Peripheral edema AE, patients” value ([4]; human, in vivo) was 45%. The Anaphylactic reaction ([4]; in vivo) was “one”, the “ICB events associated with antecedent severe thrombocytopenia (platelet count <50 × 10^9/l)” value ([4]; in vivo) was “seven” and the “ICB events, asymptomatic (grade 1)” value ([4]; in vivo) was “Five”. The “ICB events, grade 2” value ([4]; in vivo) was “two”, the “ICB events, grade 3” value ([4]; in vivo) was “one” and the “ICB events, grade 5” value ([4]; of nine patients with ICB, associated with head trauma) was “one”. For the same molecule, the “Deaths due to AEs” value ([4]; one (ICB) considered treatment related) was “six”.
